Measurements published in patent US20040219158A1, “Compositions and methods for diagnosis and therapy of medical conditions involving infection with pseudomonas bacteria” (priority 2003, published 2004).

Molecular target: PA-IIL lectin (Pseudomonas aeruginosa, UniProt Q9HYN5)
Assay: Inhibition of binding of HRP-labeled fucosylated polymer (Fuc-PAA-biotin) to immobilized PA-IIL lectin
Experimental: Biotinylated polymers of Fucose (Fuc-PAA-biotin, GlycoTech Corp.) are allowed to couple HRP-labeled streptavidin (KPL labs) overnight at 4° C. PA-IIL lectin is immobilized in plastic microtiter wells and allowed to react with the HRP-labeled fucosylated polymer. Binding is detected by TMB substrate followed by color development with 1 M H3PO4 (FIG. 20). Conditions chosen for the assay are coating with 3 μg/ml PA-IIL and incubation of inhibitor with 2 μg/ml of fucosylated polymer.

Chain of PA-IIL lectin (Q9HYN5 entry or part of it): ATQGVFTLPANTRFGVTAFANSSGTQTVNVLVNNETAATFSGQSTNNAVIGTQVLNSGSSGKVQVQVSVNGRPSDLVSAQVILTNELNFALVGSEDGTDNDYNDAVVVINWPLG

Row | Compound | inhibition of PA-IIL lectin (negative control saccharide, data not shown) | IC50 [µM]
1 | O=C[C@H](O)[C@@H](O)[C@@H](O)[C@H](O)CO [Galactose] | no inhibition | –
2 | O=C[C@@H](O)[C@@H](O)[C@H](O)[C@H](O)CO [Mannose] | – | 95
